Assay results published in patent US9920039B2, “1,2,4-Oxadiazol compounds active against gram-positive pathogens” (UNIVERSITÀ DEGLI STUDI DI MILANO—BICOCCA, priority 2013, dated 2018).
Values after ≈ are worked out from the molar mass of the structure shown. Like-named read-outs stand apart in the source and are kept apart here.

Legend:
[1] = system: Linezolid-resistant S. epidermidis Strains 1-10; test: MIC by broth microdilution (Table 5); type: cell-based, Staphylococcus epidermidis
Description: (§1) The in vitro antibacterial activity of the new agents was studied by determining their minimum inhibitory concentrations (MICs) by means of the broth microdilution method according to the Clinical and Laboratory Standards Institute (CLSI) guidelines.[16] Briefly, serial 2-fold dilutions of each compound were made using the Cation adjusted Mueller-Hinton broth (CAMHB) in microtitre plates with 96 wells. Dimethyl sulfoxide (DMSO) was used as solvent for all the synthesized compounds. An equal volume of the bacterial inoculum (1×10^6 CFU/mL) was added to each well on the microtitre plate containing 0.05 mL of the serial antibiotic dilutions. The microtitre plate was then incubated at 37° C. for 18-24 h after which each well was analysed for the presence of bacterial growth. The MIC was defined as the lowest concentration of antimicrobial agent able to cause inhibition of bacterial growth as shown by the lack of turbidity of the culture medium. […] Final DMSO concentrations were also taken into account in all the biological assays.

[2] = system: 45 Linezolid-susceptible MRSA; test: MIC summary on strain panel (Table 5); type: cell-based, Staphylococcus aureus
Description: In particular, eleven linezolid-resistant coagulase-negative staphylococci (CoNS) (ten S. epidermidis and one S. hominis) were investigated. The eleven linezolid-resistant strains were isolated in several hospital settings between 2010 and 2011 from positive blood cultures. For the […], recently isolated from patients with cystic fibrosis, showing different profiles of multi-resistance to different classes of antimicrobials, was used (Table 4 and 5).
as §1

[3] = system: Linezolid-resistant S. hominis Strain 11; test: MIC by broth microdilution (Table 5); type: cell-based, Staphylococcus hominis; conditions: S. hominis Strain 11, linezolid-resistant
Description: as §1

[4] = system: ATCC E. faecalis 29212; test: MIC by broth microdilution (Table 5); type: cell-based, Enterococcus faecalis
Description: Dimethyl sulfoxide (DMSO) was used as solvent for all the synthesized compounds. An equal volume of the bacterial inoculum (1×10^6 CFU/mL) was added to each well on the microtitre plate containing 0.05 mL of the serial antibiotic dilutions. The microtitre plate was then incubated at 37° C. for 18-24 h after which each well was analysed for the presence of bacterial growth. The MIC was defined as the lowest concentration of antimicrobial agent able to cause inhibition of bacterial growth as shown by the lack of turbidity of the culture medium. […] Final DMSO concentrations were also taken into account in all the biological assays.

[5] = system: 11 Linezolid-resistant CoNS; test: MIC summary on strain panel (Table 5); type: cell-based, Staphylococcus epidermidis, Staphylococcus hominis; conditions: 11 Linezolid-resistant CoNS
Description: as §1

[6] = system: Staphylococcus aureus ATCC 29213; test: MIC by broth microdilution (CLSI); type: cell-based
Description: (§2) Several well characterized for their antibiotic-susceptibility phenotype Staphylococcus aureus isolates were used for the determination of the in vitro antibacterial activity of the studied compounds. In particular, S. aureus ATCC 29213 reference standard strain and S. aureus M923 (collection strain) were used as MSSA strains. Among MRSA, S. aureus MU50 (ATCC 700699) reference standard strain and two collection strains (433 and F511) were used for susceptibility assays.
as §1
(§3) The antimicrobial activities, summarized in Table 2, were determined by the “gold standard” method of broth microdilution, as recommended by the Clinical Laboratory Standards Institute (CLSI) (See the Experimental Section). […] In detail, the bacterial strains were tested: Staphylococcus aureus ATCC 29213, a clinical strain of methicillin-susceptible S. aureus (M923), S. aureus MU50 (methicillin-resistant—MRSA), and two methicillin-resistant clinical strains, 433 and F511.
(§4) The antimicrobial activities, summarized in Table 3, were determined by the “gold standard” method of broth microdilution, as recommended by the Clinical Laboratory Standards Institute (CLSI) (See the Experimental Section). The minimum inhibitory concentration (MIC) values were expressed in μg/mL. […] In detail, the tested bacterial strains were: Staphylococcus aureus ATCC 29213, a clinical strain of methicillin-susceptible S. aureus (M923), S. aureus MU50 (methicillin-resistant—MRSA) strain, and two methicillin-resistant clinical strains, 433 and F511.

[7] = system: 6 ATCC (4MSSA, 2 MRSA)plus45 MRSA all LZD sensitive; test: MIC on strain panel (Table 4); type: cell-based, Staphylococcus aureus; conditions: 6 ATCC plus 45 MRSA
Description: as §1

[8] = system: 12 MRSE all LZD sensitive; test: MIC on strain panel (Table 4); type: cell-based, Staphylococcus epidermidis
Description: as §1

[9] = system: mitochondrial protein synthesis (OXPHOS complexes) in HepG2 cells; test: Oxidative phosphorylation (OXPHOS) assay; conditions: HepG2; linezolid 100 μg/mL, A4bS 10-100 μg/mL; vs non-treated cells; FIG. 6
Description: This assay (Nadaciva S. et al., 2010) is used to monitor the level of mitochondrial protein synthesis of some key proteins in the process of oxidative phosphorylation of eukaryotic cells, comparing it with the level of synthesis of mitochondrial proteins encoded by nuclear DNA. This study allows us to analyze the effects of A4bS on the proteins encoded by mitochondrial DNA (mtDNA).
The data represent the mean±SEM of three separate experiments performed in triplicate. Statistical significance is obtained by the Student's test compared to the […].

[10] = system: MRSA clinical strain 433; test: MIC by broth microdilution (CLSI); type: cell-based, Staphylococcus aureus; conditions: MRSA 433
Description: as §2, §1, §3, §4

[11] = system: MRSA clinical strain F511; test: MIC by broth microdilution (CLSI); type: cell-based, Staphylococcus aureus; conditions: Staphylococcus aureus
Description: as §2, §1, §3, §4

[12] = system: S. aureus MU50 (ATCC 700699), methicillin-resistant (MRSA); test: MIC by broth microdilution (CLSI); type: cell-based, Staphylococcus aureus
Description: as §2, §1, §3, §4

[13] = system: methicillin-susceptible S. aureus (M923); test: MIC by broth microdilution (CLSI); type: cell-based, Staphylococcus aureus; conditions: Staphylococcus aureus
Description: as §2, §1, §3, §4

[14] = system: HaCaT (human keratinocytes) cells; test: Cell viability, MTT assay; type: cell-based; conditions: P<0.01, FIG. 3
Description: (§5) [17-19] HepG2 and HaCat cells were grown in Dulbecco's modified eagles medium (DMEM) whereas PK15 in DMEM/M199 (1:1). All media were supplemented with 10% heat inactivated foetal bovine serum (FBS), 2 mM L-glutamine, 100 units/mL penicillin and 100 μg/mL streptomycin. Cells were maintained at 37° C. in a 5% CO2 atmosphere. All reagents for cell culture were from Euroclone (Pero, Italy).
(§6) Cell viability was measured by the MTT assay.[20] Briefly, MTT [3-(4,5-Dimethylthiazol-2-yl)-2,5-diphenyltetrazolium bromide] stock solution (5 mg/mL) was added to each well to a final concentration of 1.2 mM, and cells were incubated for 1 hour and 30 minutes at 37° C. After removing MTT solution, the reaction was stopped by adding 90% ethanol. Resuspended cells were centrifuged 10 min at 800×g. The absorbance was measured with the multilabel Victor^3 spectrophotometer (Perkin Elmer, Turku, Finland) at wavelength of 570 nm. Data are means±S.E. of 3 separate experiments performed in triplicate.
(§7) Statistical significance was obtained with Student'st test in comparison with controls *=P≤0.05, **=P≤0.001. Data are means±S.E. of 3 separate experiments performed in triplicate.
(§8) Another control was DMSO used as solvent.

[15] = system: PK15 (porcine kidney epithelial) cells; test: Cell viability, MTT assay; type: cell-based; conditions: 5-400 μg/mL, FIG. 2
Description: as §5, §6, §7, §8

[16] = system: HepG2 (human hepatocellular carcinoma) cells; test: Cell viability, MTT assay; type: cell-based; conditions: FIG. 4
Description: as §5, §6, §7, §8

[17] = Staphylococcus aureus, ATCC29213, ATCC 29213, racemic mixture, Table 2, read-out: MIC
[18] = Staphylococcus aureus, racemic mixture, Table 2, read-out: MIC

## CC(=S)NC[C@H]1CN(c2ccc(-c3nc(C)no3)cc2)C(=O)O1 [Compound A4aS]
[1]; S. epidermidis Strain 1, linezolid-resistant
  MIC: 8 µg/mL (≈ 24.1 µM)
[1]; S. epidermidis Strain 2, linezolid-resistant
  MIC: 32 µg/mL (≈ 96.3 µM)
[1]; S. epidermidis Strain 3, linezolid-resistant
  MIC: 4 µg/mL (≈ 12 µM)
[1]; S. epidermidis Strain 4, linezolid-resistant
  MIC: 32 µg/mL (≈ 96.3 µM)
[1]; S. epidermidis Strain 5, linezolid-resistant
  MIC: 4 µg/mL (≈ 12 µM)
[1]; S. epidermidis Strain 6, linezolid-resistant
  MIC: 4 µg/mL (≈ 12 µM)
[1]; S. epidermidis Strain 7, linezolid-resistant
  MIC: 32 µg/mL (≈ 96.3 µM)
[1]; S. epidermidis Strain 8, linezolid-resistant
  MIC: 32 µg/mL (≈ 96.3 µM)
[1]; S. epidermidis Strain 9, linezolid-resistant
  MIC: 1 µg/mL (≈ 3.01 µM)
[1]; S. epidermidis Strain 10, linezolid-resistant
  MIC: 8 µg/mL (≈ 24.1 µM)
[2]
  MIC50: 2 µg/mL (≈ 6.02 µM)
[3]
  MIC: 8 µg/mL (≈ 24.1 µM)
[4]
  MIC: 4 µg/mL (≈ 12 µM)
[5]
  MIC50: 8 µg/mL (≈ 24.1 µM)
  MIC90: 32 µg/mL (≈ 96.3 µM)
[6]; ATCC S. aureus 29213, resolved enantiomers, Table 5, read-out: MIC
  MIC: 8 µg/mL (≈ 24.1 µM)

## CC(=O)NC[C@H]1CN(c2ccc(N3CCOCC3)c(F)c2)C(=O)O1 [Linezolid, reference compound]
[7]; tested range ≤0.06 - >128
  MIC-range: 0.25 to 16 µg/mL
[7]; Staphylococcus aureus, read-out: MIC50
  MIC50: 2 µg/mL
[7]; Staphylococcus aureus, read-out: MIC90
  MIC90: 4 µg/mL
[8]
  MIC range: 32 to 64 µg/mL
[8]; Staphylococcus epidermidis, read-out: MIC50
  MIC50: 32 µg/mL (≈ 94.9 µM)
[8]; Staphylococcus epidermidis, read-out: MIC90
  MIC90: 64 µg/mL (≈ 190 µM)
[9]
  effect on proteins synthesized by mtDNA (in words): significant decrease
[6]; ATCC 29213, racemic form, Table 3
  MIC: ≤0.4 µg/mL
[6]; [17]
  MIC: ≤ 0.4 µg/mL
[10]; racemic form, Table 3
  MIC: 1.6 µg/mL (≈ 4.74 µM)
[10]; [18]
  MIC: 1.6 µg/mL (≈ 4.74 µM)
[11]; MRSA, racemic mixture, Table 2
  MIC: 3.13 µg/mL (≈ 9.28 µM)
[11]; racemic form, Table 3, read-out: MIC
  MIC: 3.12 µg/mL (≈ 9.26 µM)
[12]; [18]
  MIC: 0.8 µg/mL (≈ 2.37 µM)
[12]; racemic form, Table 3
  MIC: 0.8 µg/mL (≈ 2.37 µM)
[13]; MSSA, racemic mixture, Table 2
  MIC: 3.13 µg/mL (≈ 9.28 µM)
[13]; MSSA M923, racemic form, Table 3, read-out: MIC
  MIC: 3.12 µg/mL (≈ 9.26 µM)

## CC(=S)NCC1CN(c2ccc(-c3nc(C)no3)c(F)c2)C(=O)O1 (racemic) [Compound A4b, 3-(3′-fluoro-4′-(3″-methyl-1,2,4-oxadiazol-5-yl)-phenyl)-5-(N-thioacetylaminomethyl)-oxazolidin-2-one]
[14]
  concentration reaching statistically significant mortality compared to linezolid: 400 µg/mL
[15]
  reduction of viability: less than 10%
[16]
  concentration from which a reduction in viability was shown: ≥ 50 µg/mL
[6]; [17]
  MIC: 1.6 µg/mL (≈ 4.57 µM)
[10]; [18]
  MIC: 0.8 µg/mL (≈ 2.28 µM)
[11]; racemic mixture, Table 2, read-out: MIC
  MIC: 1.6 µg/mL (≈ 4.57 µM)
[12]; [18]
  MIC: ≤ 0.4 µg/mL
[13]; MSSA M923, racemic mixture, Table 2, read-out: MIC
  MIC: 1.6 µg/mL (≈ 4.57 µM)
